# Source: US9157077B2, “Aminopyrimidine kinase inhibitors” (Jasco Pharmaceuticals, LLC, priority 2009, dated 2015)
# What was measured:
# [1] = target: T1, Enzyme (kinases of Table 30) (Homo sapiens, UniProt P68400); experiment: IC50 of Compound (nM) (ATP present at Km of enzyme), Table 30; format: biochemical; conditions: CK2(h), ATP present at Km of enzyme
# T1 construct: IC50 of Compound, CK2(h); other: CK2(h), ATP present at Km of enzyme
# [2] = target: Enzyme (kinases of Table 30) (Homo sapiens, UniProt Q86V86); experiment: as above; format: biochemical; conditions: Pim-3(h), ATP present at Km of enzyme; read-out: IC50 of Compound, Pim-3(h)
# [3] = target: Enzyme (kinases of Table 30) (Homo sapiens, UniProt Q9P1W9); experiment: as above; format: biochemical; conditions: Pim-2(h), ATP present at Km of enzyme; read-out: IC50 of Compound, Pim-2(h)
# Enzyme (kinases of Table 30) (Homo sapiens, UniProt Q9P1W9), sequence (Q9P1W9 whole entry): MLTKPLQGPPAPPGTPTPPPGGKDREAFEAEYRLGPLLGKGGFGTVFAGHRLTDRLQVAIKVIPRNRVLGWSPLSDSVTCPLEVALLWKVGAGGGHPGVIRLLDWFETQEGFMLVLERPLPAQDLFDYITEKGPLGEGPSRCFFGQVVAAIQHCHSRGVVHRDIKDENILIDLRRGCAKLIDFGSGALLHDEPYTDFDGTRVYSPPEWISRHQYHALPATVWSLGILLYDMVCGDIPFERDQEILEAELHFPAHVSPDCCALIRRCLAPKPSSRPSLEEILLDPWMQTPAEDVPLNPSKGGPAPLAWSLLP
# [4] = target: Enzyme (kinases of Table 30) (Homo sapiens, UniProt P11309); experiment: as above; format: biochemical; conditions: Pim-1(h), ATP present at Km of enzyme; read-out: IC50 of Compound, Pim-1(h)
# Enzyme (kinases of Table 30) (Homo sapiens, UniProt P11309), sequence (P11309 whole entry): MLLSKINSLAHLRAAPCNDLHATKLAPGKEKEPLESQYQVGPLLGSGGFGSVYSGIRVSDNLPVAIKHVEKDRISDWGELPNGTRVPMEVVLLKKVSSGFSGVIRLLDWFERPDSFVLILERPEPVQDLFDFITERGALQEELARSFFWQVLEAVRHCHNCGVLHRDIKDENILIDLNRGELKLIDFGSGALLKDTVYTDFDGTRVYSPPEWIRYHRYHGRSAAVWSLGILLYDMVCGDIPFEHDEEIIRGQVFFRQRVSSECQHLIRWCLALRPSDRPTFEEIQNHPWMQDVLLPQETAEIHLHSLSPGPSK
# [5] = target: T2, Enzyme (kinases of Table 30) (Homo sapiens, UniProt P78368); experiment: as above; format: biochemical; conditions: CK1γ2(h), ATP present at Km of enzyme
# T2 construct: IC50 of Compound, CK1γ2(h); other: CK1γ2(h), ATP present at Km of enzyme
# T2 sequence (P78368 whole entry): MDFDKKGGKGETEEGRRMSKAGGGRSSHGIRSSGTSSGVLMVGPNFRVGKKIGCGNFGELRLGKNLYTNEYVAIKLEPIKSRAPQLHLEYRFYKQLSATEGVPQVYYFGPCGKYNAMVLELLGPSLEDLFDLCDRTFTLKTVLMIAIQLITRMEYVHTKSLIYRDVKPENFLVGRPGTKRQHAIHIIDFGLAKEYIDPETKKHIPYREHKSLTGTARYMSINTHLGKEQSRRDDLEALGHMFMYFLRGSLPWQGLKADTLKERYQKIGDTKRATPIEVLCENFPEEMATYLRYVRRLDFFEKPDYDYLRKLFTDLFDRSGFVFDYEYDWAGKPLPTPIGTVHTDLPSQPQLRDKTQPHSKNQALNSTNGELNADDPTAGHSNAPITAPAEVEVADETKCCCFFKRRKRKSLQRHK
# [6] = system: LNCaP cells; experiment: Cell proliferation study, inhibition of LNCaP cells (MTS); format: cell-based; conditions: Homo sapiens, 72 hours, read-out: Inhibition Rate %
# Method: Inhibition of LNCaP Cells
# (§1) • Cells: LNCaP, ATCC Passage unknown, Mycoplasma free. • Medium: RPMI-1640 Medium (GIBCO Cat#22400121) supplemented with 10% fetal bovine serum (Hyclone Cat#SH30396.03). • Seeding: 3,000 cells/well (100 μL) into 96-well plates, incubated overnight at 37° C. in a humidified 5% CO2 atmosphere. • Treatment: Test compounds were first diluted 333-fold in the medium. Fifty microliters (50 μL) of diluted compounds were added into each well (i.e., another 3-fold dilution). The final concentration of test compounds was 10 μM. The cells were incubated for 72 hours after addition of the test compounds. • MTS: Added 20 μL of MTS solution (Promega Cat #G5430) into each well and incubated for 4 hours. • Calculation: % of inhibition+(AVE zero ctrl−AVE compound)/AVE zero ctrl*100.
# [7] = system: Jurkat cells; experiment: Cell proliferation study, inhibition of Jurkat cells (MTS); format: cell-based; conditions: Homo sapiens, 72 hours, read-out: Inhibition Rate %
# Method: Inhibition of Jurkat Cells
# as §1, with “Jurkat cells,” for “LNCaP,”, “serum(Hyclone” for “serum (Hyclone”, “5,000” for “3,000”
# [8] = system: OVCAR-3 cells; experiment: Cell proliferation study, inhibition of OVCAR-3 cells (MTS); format: cell-based; conditions: Homo sapiens, 72 hours, read-out: Inhibition Rate %
# Method: Inhibition of OVCAR-3 Cells
# as §1, with “OVCAR-3 cells,” for “LNCaP,”, “4,” for “unknown,”, “2,000” for “3,000”
# [9] = system: HCT116 cells; experiment: Cell proliferation study, inhibition of HCT116 cells (MTS); format: cell-based; conditions: Homo sapiens, 72 hours, read-out: Inhibition Rate %
# Method: Inhibition of HCT116 Cells
# • Cells: HCT116 cells, ATCC Passage unknown, Mycoplasma free. • Medium: DMEM Medium (GIBCO Cat#11995073) supplemented with 10% fetal bovine serum (Hyclone Cat#SH30396.03). • Seeding: 750 cells/well (100 μL) into 96-well plates, incubated overnight at 37° C. in a humidified 5% CO2 atmosphere. • Treatment: Test compounds were first diluted 333-fold in the medium. Fifty microliters (50 μL) of diluted compounds were added into each well (i.e., another 3-fold dilution). The final concentration of test compounds was 10 μM. The cells were incubated for 72 hours after addition of the test compounds. • MTS: Added 20 μL of MTS solution (Promega Cat #G5430) into each well and incubated for 4 hours. • Measurement: Absorbance at 490 nm using MD Spectramax Plus 384 spectrophotometer. • Calculation: % of inhibition+(AVE zero ctrl−AVE compound)/AVE zero ctrl*100.
# [10] = system: MDA-MB-468 cells; experiment: Cell proliferation study, inhibition of MDA-MB-468 cells (MTS); format: cell-based; conditions: Homo sapiens, 72 hours, read-out: Inhibition Rate %
# Method: Inhibition of MDA-MB-468 Cells
# as §1, with “MDA-MB-468 cells,” for “LNCaP,”, “2,000” for “3,000”
# [11] = system: PC-3 cells; experiment: Cell proliferation study, inhibition of PC-3 cells (MTS); format: cell-based; conditions: Homo sapiens, 72 hours, read-out: Inhibition Rate %
# Method: Inhibition of PC-3 Cells:
# as §1, with “PC-3 cells,” for “LNCaP,”, “DMEM” for “RPMI-1640”, “Cat#11995073)” for “Cat#22400121)”
# T1 sequence (P68400 whole entry): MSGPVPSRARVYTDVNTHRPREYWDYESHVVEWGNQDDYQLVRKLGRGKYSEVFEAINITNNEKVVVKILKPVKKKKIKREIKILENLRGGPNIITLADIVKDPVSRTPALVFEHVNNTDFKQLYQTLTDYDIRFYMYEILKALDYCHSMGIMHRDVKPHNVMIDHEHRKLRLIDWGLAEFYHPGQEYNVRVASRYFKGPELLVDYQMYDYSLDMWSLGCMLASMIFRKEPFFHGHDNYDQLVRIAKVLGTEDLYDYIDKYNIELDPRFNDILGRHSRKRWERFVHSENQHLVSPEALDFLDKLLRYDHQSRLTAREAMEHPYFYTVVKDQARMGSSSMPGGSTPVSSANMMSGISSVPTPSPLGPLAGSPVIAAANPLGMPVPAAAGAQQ
smiles,measurement,setting,value
O=C1NC(=O)/C(=C/c2ccnc(N3CCC(CNc4ccc5ccccc5n4)CC3)n2)S1 [compound 219],IC50,[1],476 nM
same,IC50,[2],249 nM
same,IC50,[3],146 nM
same,IC50,[4],475 nM
COc1cccc2ccc(CNCC3CCN(c4nccc(/C=C5\SC(=O)NC5=O)n4)CC3)nc12 [compound 189],IC50,[1],364 nM
same,IC50,[2],4 nM
same,IC50,[3],9 nM
same,IC50,[4],4 nM
same,IC50,[5],164 nM
CN(c1nccc(/C=C2\SC(=O)NC2=O)n1)[C@H]1CCCNC1 [compound 143],IC50,[1],66 nM
same,IC50,[2],3 nM
same,IC50,[3],5 nM
same,IC50,[4],20 nM
O=C1NC(=O)/C(=C/c2ccnc(N3CCc4[nH]c5ccccc5c4C3)n2)S1 [compound 91],IC50,[1],222 nM
same,IC50,[2],1000 nM
same,IC50,[3],127 nM
same,IC50,[4],255 nM
CN1CCC(CNc2nccc(/C=C3\SC(=O)NC3=O)n2)CC1 [compound 92],IC50,[1],186 nM
same,IC50,[2],31 nM
same,IC50,[3],228 nM
same,IC50,[4],628 nM
Nc1cccc2c1CCN(c1nccc(/C=C3\SC(=O)NC3=O)n1)C2 [compound 120],IC50,[1],214 nM
same,IC50,[2],271 nM
same,IC50,[3],225 nM
same,IC50,[4],170 nM
same,IC50,[5],676 nM
O=C1NC(=O)/C(=C/c2ccnc(NCC3CCNCC3)n2)S1 [compound 147],IC50,[1],134 nM
same,IC50,[2],31 nM
same,IC50,[3],90 nM
same,IC50,[4],258 nM
O=C1NC(=O)/C(=C/c2ccnc(N3CCC(c4c[nH]c5ccccc45)CC3)n2)S1 [compound 94],IC50,[5],38 nM
"Nc1ccn([C@@H]2O[C@H](CO)[C@@H](O)C2(F)F)c(=O)n1 [Gemcitabine, gemcitabine]",inhibition at 1.2 µM,[6]; positive control 1.2 μM,14.5%
same,inhibition at 3.7 µM,[6]; positive control 3.7 μM,60.9%
same,inhibition at 11.1 µM,[6]; positive control 11.1 μM,90.2%
same,inhibition at 33.3 µM,[6]; positive control 33.3 μM,92.9%
same,inhibition at 100 µM,[6]; positive control 100 μM,90.7%
same,inhibition at 300 µM,[6]; positive control 300 μM,90.1%
same,inhibition at 1.2 µM,[7]; positive control 1.2 μM,17.4%
same,inhibition at 3.7 µM,[7]; positive control 3.7 μM,63.9%
same,inhibition at 11.1 µM,[7]; positive control 11.1 μM,84.7%
same,inhibition at 33.3 µM,[7]; positive control 33.3 μM,105%
same,inhibition at 100 µM,[7]; positive control 100 μM,106%
same,inhibition at 300 µM,[7]; positive control 300 μM,104%
same,inhibition at 1.2 µM,[8]; positive control 1.2 μM,18.2%
same,inhibition at 3.7 µM,[8]; positive control 3.7 μM,25%
same,inhibition at 11.1 µM,[8]; positive control 11.1 μM,31.5%
same,inhibition at 33.3 µM,[8]; positive control 33.3 μM,40.8%
same,inhibition at 100 µM,[8]; positive control 100 μM,85.1%
same,inhibition at 300 µM,[8]; positive control 300 μM,87%
same,inhibition at 1.2 µM,"[9]; HCT-116, positive control 1.2 μM",50.1%
same,inhibition at 3.7 µM,"[9]; HCT-116, positive control 3.7 μM",79.3%
same,inhibition at 11.1 µM,"[9]; HCT-116, positive control 11.1 μM",85.6%
same,inhibition at 33.3 µM,"[9]; HCT-116, positive control 33.3 μM",85.6%
same,inhibition at 100 µM,"[9]; HCT-116, positive control 100 μM",85.4%
same,inhibition at 300 µM,"[9]; HCT-116, positive control 300 μM",87.6%
same,inhibition at 1.2 µM,[10]; positive control 1.2 μM,16.4%
same,inhibition at 3.7 µM,[10]; positive control 3.7 μM,31.2%
same,inhibition at 11.1 µM,[10]; positive control 11.1 μM,80.7%
same,inhibition at 33.3 µM,[10]; positive control 33.3 μM,91.7%
same,inhibition at 100 µM,[10]; positive control 100 μM,88.8%
same,inhibition at 300 µM,[10]; positive control 300 μM,94.9%
same,inhibition at 1.2 µM,[11]; positive control 1.2 μM,6.5%
same,inhibition at 3.7 µM,[11]; positive control 3.7 μM,6.7%
same,inhibition at 11.1 µM,[11]; positive control 11.1 μM,20.9%
same,inhibition at 33.3 µM,[11]; positive control 33.3 μM,47.4%
same,inhibition at 100 µM,[11]; positive control 100 μM,55.7%
same,inhibition at 300 µM,[11]; positive control 300 μM,79.5%
O=C1NC(=O)/C(=C/c2ccnc(N[C@H]3CCCNC3)n2)S1 [compound 144],IC50,[1],23 nM
same,IC50,[2],9 nM
same,IC50,[3],18 nM
same,IC50,[4],78 nM
Nc1ccc2c(c1)CN(c1nccc(/C=C3\SC(=O)NC3=O)n1)CC2 [compound 90],IC50,[1],291 nM
same,IC50,[2],419 nM
same,IC50,[3],89 nM
same,IC50,[4],97 nM
CCCCN(C)c1nccc(/C=C2\SC(=O)NC2=O)n1 [compound 87],IC50,[1],261 nM
same,IC50,[2],263 nM
same,IC50,[3],80 nM
same,IC50,[4],295 nM
CN(CC1CCNCC1)c1nccc(/C=C2\SC(=O)NC2=O)n1 [compound 151],IC50,[1],415 nM
same,IC50,[2],171 nM
same,IC50,[3],98 nM
same,IC50,[4],246 nM
O=C1NC(=O)/C(=C/c2ccnc(N3CCC(c4nc(-c5ccncc5)no4)CC3)n2)S1 [compound 86],IC50,[5],86 nM
CN(c1nccc(/C=C2\SC(=O)NC2=O)n1)C1CCCCC1 [compound 119],IC50,[1],176 nM
same,IC50,[2],267 nM
same,IC50,[3],16 nM
same,IC50,[4],186 nM
O=C1NC(=O)/C(=C/c2ccnc(N3CCC(CNCc4cccnc4)CC3)n2)S1 [compound 176],IC50,[1],669 nM
same,IC50,[2],18 nM
same,IC50,[3],108 nM
same,IC50,[4],487 nM
O=C1NC(=O)/C(=C/c2ccnc(N3CCC(CCO)CC3)n2)S1 [compound 106],IC50,[1],361 nM
same,IC50,[2],298 nM
same,IC50,[3],127 nM
same,IC50,[4],166 nM
O=C1NC(=O)/C(=C/c2ccnc(N3CCC(CNCC4CCN4)CC3)n2)S1 (stereo not shown) [compound 208],IC50,[1],129 nM
same,IC50,[2],65 nM
same,IC50,[3],43 nM
same,IC50,[4],288 nM
